Assay results: patent US9512075B2 (OKAYAMA UNIVERSITY, priority 2012, dated 2016)
Converted amounts (≈) assume the structure as drawn. Where two headings read alike, the source gives them in different places.

Experiments:
Format in all cases: cell-based
[1] = tested on: Staphylococcus aureus MRSA No. 17 (methicillin-resistant Staphylococcus aureus: MRSA); experiment: MIC for Staphylococcus aureus MRSA No. 17; conditions: read-out: MIC Straphyrococcus aureus MRSA No. 17 (MRSA)
[2] = tested on: Staphylococcus aureus Smith strain; experiment: MIC for Staphylococcus aureus Smith strain; conditions: read-out: MIC Straphyrococcus aureus Smith
[3] = tested on: Enterococcus faecalis NCTC12201 strain (vancomycin-resistant Enterococcus: VRE); experiment: MIC for Enterococcus faecalis NCTC12201 strain (VRE); conditions: read-out: MIC Enterococcus faecalis NCTC 12201 (VRE)
[4] = tested on: Escherichia coli BE1121 strain; experiment: MIC for Escherichia coli BE1121 strain; conditions: Escherichia coli, BE1121STRAIN; BE1121 strain; regular bouillon medium, 37° C. overnight, turbidity; read-out: MIC Escherichia coli BE1121
[5] = tested on: Clostridium perfringens PB6K strain; experiment: microbe, parasite or virus in culture; conditions: Clostridium perfringens, PB6KSTRAIN, read-out: MIC Clostridium perfringens PB6K, PB6K strain; CD medium, 37° C. overnight, 10% CO2-containing anaerobic conditions
[6] = tested on: Staphylococcus aureus 209P strain; experiment: MIC for Staphylococcus aureus 209P strain; conditions: Staphylococcus aureus; 209P strain; regular bouillon medium, 37° C. overnight, turbidity; read-out: MIC Straphyrococcus aureus 209P
[7] = tested on: Escherichia coli K-12 strain; experiment: MIC for Escherichia coli K-12 strain; conditions: Escherichia coli, K12STRAIN; K-12 strain; regular bouillon medium, 37° C. overnight, turbidity; read-out: MIC Escherichia coli K12
[8] = tested on: Clostridium difficile JCM1296 strain; experiment: microbe, parasite or virus in culture; conditions: Clostridioides difficile, JCM1296, read-out: MIC Clostridium difficile JCM1296
[9] = tested on: Enterococcus faecalis 5038 strain; experiment: MIC for Enterococcus faecalis 5038 strain; conditions: read-out: MIC Enterococcus faecalis 5038
[10] = MRSA No. 17, regular bouillon medium, 37° C. overnight, turbidity
[11] = Smith strain, regular bouillon medium, 37° C. overnight, turbidity
[12] = NCTC12201 strain (VRE), Heart Infusion Broth medium, 37° C. overnight, turbidity
[13] = 5038 strain, Heart Infusion Broth medium, 37° C. overnight, turbidity

SMILES	MIC ([1]; MRSA)	MIC [2]	MIC [3]	MIC [4]	MIC [5]	MIC [6]	MIC [7]	MIC [8]	MIC ([9]; 5038STRAIN)	MIC [1, 10]	MIC [2, 11]	MIC [3, 12]	MIC [9, 13]	MIC ([3]; NCTC12201|VRE)
CCCCCCCCCC(=O)N1C(=O)C(=C(O)c2ccccc2O)c2ccccc21 [A063, N-decanoyl-3-(2-hydroxybenzoyl)-2-oxyindole]	256 µg/mL (≈ 628 µM)	256 µg/mL (≈ 628 µM)	256 µg/mL (≈ 628 µM)	128 µg/mL (≈ 314 µM)	256 µg/mL (≈ 628 µM)	256 µg/mL (≈ 628 µM)	128 µg/mL (≈ 314 µM)	16 µg/mL (≈ 39.3 µM)	256 µg/mL (≈ 628 µM)					
CCCCCCCCCCOCC(O)=C1C(=O)N(C(=O)Nc2ccc(F)cc2)c2ccccc21 [A041, N-(4-fluorophenylaminocarbonyl)-3-decyloxyacetyl-2-oxyindole]				256 µg/mL (≈ 546 µM)	8 µg/mL (≈ 17.1 µM)	256 µg/mL (≈ 546 µM)	128 µg/mL (≈ 273 µM)	0.5 µg/mL (≈ 1.07 µM)		256 µg/mL (≈ 546 µM)	4 µg/mL (≈ 8.54 µM)	4 µg/mL (≈ 8.54 µM)	2 µg/mL (≈ 4.27 µM)	
CCCCCCCCCC(=O)N1C(=O)C(=C(O)CCCCCCCCC)c2ccccc21 [A005, 1,3-didecanoyl-2-oxyindole]				128 µg/mL (≈ 290 µM)	16 µg/mL (≈ 36.2 µM)	32 µg/mL (≈ 72.5 µM)	128 µg/mL (≈ 290 µM)	2 µg/mL (≈ 4.53 µM)		32 µg/mL (≈ 72.5 µM)	64 µg/mL (≈ 145 µM)	32 µg/mL (≈ 72.5 µM)	32 µg/mL (≈ 72.5 µM)	
CCCCCCCCCCSCC(=O)c1c(O)c2ccccc2oc1=O [B023]	1 µg/mL (≈ 2.66 µM)	0.25 µg/mL (≈ 0.664 µM)		2 µg/mL (≈ 5.31 µM)	< 0.125 µg/mL	1 µg/mL (≈ 2.66 µM)	256 µg/mL (≈ 680 µM)	< 0.125 µg/mL	0.25 µg/mL (≈ 0.664 µM)					0.25 µg/mL (≈ 0.664 µM)
CCCCC1CCC(C(O)=C2C(=O)N(C(=O)Nc3ccccc3)c3ccccc32)CC1 (stereo not drawn) [A016, N-(phenylaminocarbonyl)-3-(4-butylcyclohexylcarbonyl)-2-oxyindole]				256 µg/mL (≈ 612 µM)	4 µg/mL (≈ 9.56 µM)	128 µg/mL (≈ 306 µM)	256 µg/mL (≈ 612 µM)	0.25 µg/mL (≈ 0.597 µM)		256 µg/mL (≈ 612 µM)	4 µg/mL (≈ 9.56 µM)	0.5 µg/mL (≈ 1.19 µM)	1 µg/mL (≈ 2.39 µM)	
CCCCCCCCCC(=O)N1C(=O)/C(=C(\O)COC)c2cc(F)ccc21 [A050, N-decanoyl-3-methoxyacetyl-5-fluoro-2-oxyindole]				128 µg/mL (≈ 339 µM)	0.5 µg/mL (≈ 1.32 µM)	256 µg/mL (≈ 678 µM)	256 µg/mL (≈ 678 µM)	0.25 µg/mL (≈ 0.662 µM)		256 µg/mL (≈ 678 µM)	0.5 µg/mL (≈ 1.32 µM)	0.5 µg/mL (≈ 1.32 µM)	0.5 µg/mL (≈ 1.32 µM)	
CCCCCCCCNC(=O)c1c(O)c2cc(F)ccc2oc1=O [B022, 6-fluoro-3-(octylaminocarbonyl)-4-hydroxycoumarin]				128 µg/mL (≈ 382 µM)	64 µg/mL (≈ 191 µM)	128 µg/mL (≈ 382 µM)	256 µg/mL (≈ 763 µM)	16 µg/mL (≈ 47.7 µM)		256 µg/mL (≈ 763 µM)	128 µg/mL (≈ 382 µM)	256 µg/mL (≈ 763 µM)	256 µg/mL (≈ 763 µM)	
CCCCCCCCOCC(=O)c1c(O)c2ccccc2oc1=O [B030, 3-octyloxyacetyl-4-hydroxycoumarin]	1 µg/mL (≈ 3.01 µM)	2 µg/mL (≈ 6.02 µM)	4 µg/mL (≈ 12 µM)	2 µg/mL (≈ 6.02 µM)	0.25 µg/mL (≈ 0.752 µM)	4 µg/mL (≈ 12 µM)	128 µg/mL (≈ 385 µM)	0.25 µg/mL (≈ 0.752 µM)	2 µg/mL (≈ 6.02 µM)					
CCCCCCCCCCOCC(O)=C1C(=O)N(C(=O)Nc2ccc(OC)cc2)c2ccc(F)cc21 [A047, N-(4-methoxyphenylaminocarbonyl)-3-decyloxyacetyl-5-fluoro-2-oxyindole]				128 µg/mL (≈ 257 µM)	0.25 µg/mL (≈ 0.501 µM)	128 µg/mL (≈ 257 µM)	128 µg/mL (≈ 257 µM)	1 µg/mL (≈ 2.01 µM)		128 µg/mL (≈ 257 µM)	8 µg/mL (≈ 16 µM)	16 µg/mL (≈ 32.1 µM)	4 µg/mL (≈ 8.02 µM)	
CCCCc1ccc(COCC(=O)c2c(O)c3ccccc3oc2=O)cc1 [B024, 3-(4-butylphenylmethoxyl)acetyl-4-hydroxycoumarin]	64 µg/mL (≈ 175 µM)	8 µg/mL (≈ 21.8 µM)	2 µg/mL (≈ 5.46 µM)	2 µg/mL (≈ 5.46 µM)	1 µg/mL (≈ 2.73 µM)	4 µg/mL (≈ 10.9 µM)	256 µg/mL (≈ 699 µM)	0.25 µg/mL (≈ 0.682 µM)	2 µg/mL (≈ 5.46 µM)					
CCCCC1CCC(C(O)=C2C(=O)N(C(=O)Nc3ccc(Br)cc3)c3ccccc32)CC1 (stereo not drawn) [A040, N-(4-bromophenylaminocarbonyl)-3-(4-butylcyclohexylcarbonyl)-2-oxyindole]				256 µg/mL (≈ 515 µM)	4 µg/mL (≈ 8.04 µM)	128 µg/mL (≈ 257 µM)	256 µg/mL (≈ 515 µM)	8 µg/mL (≈ 16.1 µM)		128 µg/mL (≈ 257 µM)	2 µg/mL (≈ 4.02 µM)	1 µg/mL (≈ 2.01 µM)	1 µg/mL (≈ 2.01 µM)	
